# From BindingDB's records for doi:10.7270/Q2TX3CTT (Broad Institute, 2010)
# pEC50: −log10 of the molar value. Counter-ions that a name gives are not always drawn.
# Target: Glycogen synthase kinase-3 beta (Homo sapiens, UniProt P49841)
# Assay: concentration-response blocking of human GSK3B – biochemical, luminescence, cell-free homogeneous, retest, dose response (AID 434954)
# Sequence of Glycogen synthase kinase-3 beta (P49841 whole entry): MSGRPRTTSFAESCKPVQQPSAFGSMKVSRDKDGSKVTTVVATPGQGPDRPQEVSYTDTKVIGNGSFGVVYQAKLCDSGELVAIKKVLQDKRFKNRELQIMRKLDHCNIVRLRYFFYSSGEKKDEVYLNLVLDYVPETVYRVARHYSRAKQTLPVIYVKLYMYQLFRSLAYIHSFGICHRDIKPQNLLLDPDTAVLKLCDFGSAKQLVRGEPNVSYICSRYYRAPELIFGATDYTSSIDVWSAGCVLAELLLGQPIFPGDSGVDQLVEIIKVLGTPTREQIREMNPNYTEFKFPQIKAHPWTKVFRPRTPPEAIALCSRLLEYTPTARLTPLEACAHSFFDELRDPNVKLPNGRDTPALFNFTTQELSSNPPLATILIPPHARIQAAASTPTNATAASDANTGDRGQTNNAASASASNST
row,Structure (SMILES),pEC50
1,"Nc1nc(S)c2ncn(C3OC(CO)C(O)C3O)c2n1 (stereo unspecified) [2-azanyl-9-[5-(hydroxymethyl)-3,4-bis(oxidanyl)oxolan-2-yl]-3H-purine-6-thione]",< 3.52
2,O=[N+]([O-])c1cc([N+](=O)[O-])c(N2CCCCCC2)cc1NCCO,5.25
3,O=c1oc2cc(O)ccc2cc1-c1ccccc1 [7-Hydroxy-3-phenyl-chromen-2-one],< 3.52
4,CCCCn1nc(NC(=O)c2cccs2)c2cc3ccccc3nc21 [MLS000081455],< 3.52
5,COc1ccc2cc(C(N)=O)c(=NNC(=O)c3ccco3)oc2c1 [SMR000236446],< 3.52
6,"O=c1[nH]c(=S)n(-c2ccccc2F)c(O)c1C=NCc1ccco1 [(5E)-1-(2-fluorophenyl)-5-[(furan-2-ylmethylamino)methylidene]-2-sulfanylidene-1,3-diazinane-4,6-dione]",4.10
7,O=C(O)c1cc(-c2ccc(C=NNC(=S)Nc3ccccc3)o2)ccc1Cl [5-[5-[[[anilino(sulfanylidene)methyl]hydrazinylidene]methyl]-2-furanyl]-2-chlorobenzoic acid],< 3.52
8,COc1cccc2c1cc1c(=O)n(CC(=O)NCCCc3ccccc3)nc(C)n12 [MLS001076397],< 3.52
9,CC(C)(C)c1ccc(OCC(=O)NCCN2CCCC2)cc1 [2-(4-tert-butylphenoxy)-N-(2-pyrrolidin-1-ylethyl)ethanamide;hydrochloride],< 3.52
10,COc1ccc(C(=O)c2coc3ccc(OC(C)=O)cc23)cc1,< 3.52
11,O=C(OCCCOC(=O)c1ccc(O)cc1)c1ccc(O)cc1 [4-hydroxybenzoic acid 3-[(4-hydroxyphenyl)-oxomethoxy]propyl ester],5.74
12,CCOC(=O)CSc1ccc2nnc(-c3ccncc3)n2n1,5.72
13,CC1CCCCN1c1ncnc(N)c1[N+](=O)[O-] (stereo unspecified) [6-(2-methylpiperidin-1-yl)-5-nitro-pyrimidin-4-amine],5.09
14,CN1C(=Cc2ccc(F)cc2)C(=O)N=C1N [(5Z)-2-azanyl-5-[(4-fluorophenyl)methylidene]-1-methyl-imidazol-4-one],< 3.52
15,COc1cccc2cc(C(=O)CS(=O)(=O)c3ccc(Cl)cc3)c(=O)oc12 [3-[2-(4-chlorophenyl)sulfonylethanoyl]-8-methoxy-chromen-2-one],< 3.52
16,Nc1nonc1-n1nnc(C(=O)NN=Cc2ccc(OCc3ccccc3F)cc2)c1CN1CCCCC1 [SMR000646487],< 3.52
17,COc1ccc(N2CC(C(=O)Nc3cc(C)ccn3)CC2=O)cc1 (stereo unspecified) [1-(4-methoxyphenyl)-N-(4-methylpyridin-2-yl)-5-oxopyrrolidine-3-carboxamide],4.33
18,NC(=O)c1ccc(Oc2ccc(Cl)c3ccccc23)c([N+](=O)[O-])c1 [4-(4-chloronaphthalen-1-yl)oxy-3-nitrobenzamide],< 3.52
19,CCN1CCN(Cc2c(O)ccc3c2O/C(=C\C=C\c2ccccc2)C3=O)CC1 [SMR000221319],< 3.52
20,Cc1cc(CN(C)C(=O)c2ccc(OC3CCN(CCc4ccccc4)CC3)cc2)on1 [MLS001100796],< 3.52
21,"CCOC(=O)c1ccc(/N=c2\sc(C(=O)OC)cc(=O)n2Cc2ccco2)cc1 [methyl 2-(4-ethoxycarbonylphenyl)imino-3-(furan-2-ylmethyl)-4-oxidanylidene-1,3-thiazine-6-carboxylate]",< 3.52
22,CCn1c(=O)cc(OCC(=O)N(C)c2ccccc2F)c2ccccc21 [2-(1-ethyl-2-oxidanylidene-quinolin-4-yl)oxy-N-(2-fluorophenyl)-N-methyl-ethanamide],< 3.52

row,Structure (SMILES),pEC50
1,COCc1c(C(=O)Nc2ccc(Cl)cc2F)oc2ccccc12 [N-(4-chloro-2-fluorophenyl)-3-(methoxymethyl)-2-benzofurancarboxamide],< 3.52
2,"N#Cc1ccccc1CSc1nnc(-c2ccncc2)o1 [2-[(5-pyridin-4-yl-1,3,4-oxadiazol-2-yl)sulfanylmethyl]benzenecarbonitrile]",4.68
3,"O=C(CCc1nnc(CCCCc2ccccc2)o1)NCc1cccc(F)c1 [N-(3-fluorobenzyl)-3-[5-(4-phenylbutyl)-1,3,4-oxadiazol-2-yl]propanamide]",< 3.52
4,CCC(=O)n1nc(-c2ccc(OC)cc2)nc1N [MLS000043495],< 3.52
5,O=C(COC(=O)C1CCN(/C=C/C(=O)C(F)(F)F)CC1)Nc1ccccc1 [MLS000390182],< 3.52
6,"CCOc1cc(C2Nc3ccccc3N=C3CC(C)(C)CC(=O)C32)ccc1O (stereo unspecified) [6-(3-ethoxy-4-hydroxyphenyl)-9,9-dimethyl-6,8,10,11-tetrahydro-5H-benzo[b][1,4]benzodiazepin-7-one]",< 3.52
7,Cc1nnc(SCC(=O)Nc2nccs2)n(N)c1=O [SMR000323668],< 3.52
8,C=c1cc2[nH]c(=O)c(=Cc3ccc(OCC)c(OC)c3)c(=N)n2o1 [SMR000309341],< 3.52
9,COc1ccc(C2c3c(n[nH]c3C)N=C3CC(C)(C)CC(=O)C32)cc1 (stereo unspecified),4.55
10,CCc1ccccc1-n1c(O)cc(N2CCc3ccccc32)c1O [SMR000285101],< 3.52
11,COc1ccc2cc(C(=O)C3CCCN(C(=O)c4sc(C)nc4C)C3)ccc2c1 (stereo unspecified) [SMR000653741],< 3.52
12,"CC1CCN(C(=O)CSc2nc(N)c3c4c(sc3n2)CN(C)CC4)CC1 [2-[(4-azanyl-7-methyl-6,8-dihydro-5H-pyrido[4,5]thieno[1,2-c]pyrimidin-2-yl)sulfanyl]-1-(4-methylpiperidin-1-yl)ethanone]",< 3.52
13,COc1ccc(CNC(=O)CN(Cc2ccc(OC)cc2)C(=O)CCC(=O)Nc2ccccn2)cc1 [SMR000600506],4.28
14,CCc1nn(CC(=O)NCCN2CCN(C)CC2)c(=O)c2cc3c(OC)cccc3n12 [MLS001110984],< 3.52
15,Cc1cc(OCCCn2ccnc2)ccc1[N+](=O)[O-] [SMR000497363],< 3.52
16,"CCn1c(SCC(=O)Nc2nccs2)nnc1C1CC1 [2-[(5-cyclopropyl-4-ethyl-1,2,4-triazol-3-yl)sulfanyl]-N-(1,3-thiazol-2-yl)ethanamide]",< 3.52
17,COc1ccc(Cl)cc1-c1nc(N)nc(NC2CCCCC2)n1 [MLS000698409],< 3.52
18,CCCc1cc(=O)oc2cc(C)c3c(C)coc3c12 [MLS000112563],< 3.52
19,O=C(NCc1ccccc1)c1ccc2nccnc2c1 [N-(phenylmethyl)-6-quinoxalinecarboxamide],< 3.52
20,Cc1cccc(-c2nnc(SCc3ccccc3)o2)c1 [MLS000067803],< 3.52
21,"Nn1c(SCc2cccc(Br)c2)nnc1-c1ccncc1 [3-(3-Bromo-benzylsulfanyl)-5-pyridin-4-yl-[1,2,4]triazol-4-ylamine]",< 3.52
22,"Cc1ccc2c(c1)NC(c1cccs1)C1C(=O)CC(C)(C)CC1=N2 (stereo unspecified) [3,9,9-trimethyl-6-thiophen-2-yl-6,8,10,11-tetrahydro-5H-benzo[b][1,4]benzodiazepin-7-one]",< 3.52

row,Structure (SMILES),pEC50
1,CC(Cl)C(=O)Nc1ncc(C(F)(F)F)cc1Cl (stereo unspecified) [SMR000152526],< 3.52
2,"COC(=O)CSc1ccc2nnc(-c3ccc(F)cc3)n2n1 [methyl 2-[[3-(4-fluorophenyl)-[1,2,4]triazolo[4,3-b]pyridazin-6-yl]sulfanyl]ethanoate]",5.03
3,"NCCCNc1nc(N)c([N+](=O)[O-])c(NC2CCCCC2)n1 [N2-(3-aminopropyl)-N4-cyclohexyl-5-nitropyrimidine-2,4,6-triamine]",5.51
4,O=C(O)C1C2C=CC(O2)C1C(=O)NCc1ccc(Cl)cc1 (stereo unspecified) [3-{[(4-chlorobenzyl)amino]carbonyl}-7-oxabicyclo[2.2.1]hept-5-ene-2-carboxylic acid],< 3.52
5,O=C(O)Cn1cc(CN=Nc2ccc([N+](=O)[O-])cn2)c2ccccc21 [SMR000540193],5.08
6,CC1(C)CC(=O)C=C(Nc2cccc(O)c2)C1 [MLS000108953],< 3.52
7,CN1CCN(/N=C/c2ccc(-c3ccc([N+](=O)[O-])cc3Cl)o2)CC1 [1-[5-(2-chloro-4-nitrophenyl)-2-furanyl]-N-(4-methyl-1-piperazinyl)methanimine],< 3.52
8,CC(=O)c1cccc(S(=O)(=O)NC2CCSc3ccccc32)c1 (stereo unspecified),< 3.52
9,"COc1nc(N(C)C)nc(N(C#N)CCOC(C)=O)n1 [2-[cyano-[4-(dimethylamino)-6-methoxy-1,3,5-triazin-2-yl]amino]ethyl ethanoate]",< 3.52
10,"CC(=O)N1CCc2c(sc(NC(=O)CN3C(=O)CCC3=O)c2C(N)=O)C1 [6-acetyl-2-[[2-(2,5-dioxopyrrolidin-1-yl)acetyl]amino]-5,7-dihydro-4H-thieno[2,3-c]pyridine-3-carboxamide]",5.64
11,C=CCN1C(=O)C(Cc2ccc(Br)cc2)SC1=NN=Cc1ccco1 (stereo unspecified),< 3.52
12,"COC(=O)c1nnn(-c2nonc2N)c1CSc1nnc(N)s1 [1-(4-amino-1,2,5-oxadiazol-3-yl)-5-[[(5-amino-1,3,4-thiadiazol-2-yl)thio]methyl]-4-triazolecarboxylic acid methyl ester]",4.40
13,COc1ccc(CN(CC(=O)NCc2ccccc2)C(=O)CCC(=O)Nc2ccccn2)cc1,< 3.52
14,Clc1ccc(-c2nnc(-c3ccccc3)c(N3CCSCC3)n2)cc1,< 3.52
15,Cc1ccc(S(=O)(=O)N2CCN(CC(=O)NN=Cc3ccco3)CC2)cc1 [MLS000590873],< 3.52
16,CN(c1ccccc1C(=O)Nc1cccc(C(F)(F)F)c1)S(C)(=O)=O [MLS000096933],< 3.52
17,"CCCNCC1COc2ccccc2O1 (stereo unspecified) [2,3-dihydro-1,4-benzodioxin-3-ylmethyl(propyl)amine;hydrochloride]",< 3.52
18,"O=C(O)c1ccccc1C(=O)Nc1nccs1 [2-(1,3-thiazol-2-ylcarbamoyl)benzoic acid]",< 3.52
19,CNC(=O)NC(=O)CSc1nc(-c2cccs2)c(C#N)c(=O)[nH]1 [2-[(5-cyano-4-oxo-6-thiophen-2-yl-1H-pyrimidin-2-yl)thio]-N-(methylcarbamoyl)acetamide],5.69
20,CSc1nc(NCC(C)C)c2c3c(sc2n1)CN(C)CC3 [SMR000148856],< 3.52
21,"O=C(NCCc1nnc2ccc(NCC3CCCO3)nn12)c1ccccc1 (stereo unspecified) [N-(2-{6-[(tetrahydrofuran-2-ylmethyl)amino][1,2,4]triazolo[4,3-b]pyridazin-3-yl}ethyl)benzamide]",< 3.52
22,O=C(COc1ccccc1[N+](=O)[O-])N/N=C/c1ccc[nH]1 [(2-Nitro-phenoxy)-acetic acid [1-(1H-pyrrol-2-yl)-meth-(E)-ylidene]-hydrazide],< 3.52
